# Source: ChEMBL document CHEMBL6103583, “Purified Monascus Pigments: Biological Activities and Mechanisms of Action” (J Nat Prod, 2025)
# How the values were obtained:
# Penicillium citrinum = test: Antifungal activity against Penicillium citrinum KCCM 11663 assessed as reduction in […] incubated for 12 hrs by micro-dilution method; assay type: functional
# Penicillium digitatum = test: Antifungal activity against Penicillium digitatum KCCM 60140 assessed as reduction in […] incubated for 12 hrs by micro-dilution method; assay type: functional
# Staphylococcus aureus [1] = test: Antibacterial activity against Staphylococcus aureus KCCM 11817 assessed as reduction in bacterial growth incubated for 12 hrs by broth micro-dilution method; assay type: functional
# Bacillus subtilis = test: Antibacterial activity against Bacillus subtilis KCCM 11316 assessed as reduction in bacterial growth incubated for 12 hrs by broth micro-dilution method; assay type: functional
# Haemophilus influenzae = test: Antibacterial activity against Haemophilus influenzae KCCM 11903 assessed as reduction in bacterial growth incubated for 12 hrs by broth micro-dilution method; assay type: functional
# Pseudomonas aeruginosa = test: Antibacterial activity against Pseudomonas aeruginosa KCCM 11328 assessed as reduction in bacterial growth incubated for 12 hrs by micro-dilution method; assay type: functional
# Klebsiella aerogenes = test: Antibacterial activity against Enterobacter aerogenes KCCM 12177 assessed as reduction in bacterial growth incubated for 12 hrs by broth micro-dilution method; assay type: functional
# Enterococcus faecalis = test: Antibacterial activity against Enterococcus faecalis KCCM 11814 assessed as reduction in bacterial growth incubated for 12 hrs by broth micro-dilution method; assay type: functional
# Aspergillus niger = test: Antifungal activity against Aspergillus niger KCCM 11239 assessed as reduction in […] incubated for 12 hrs by micro-dilution method; assay type: functional
# Shigella sonnei = test: Antibacterial activity against Shigella sonnei KCCM 40253 assessed as reduction in bacterial growth incubated for 12 hrs by micro-dilution method; assay type: functional
# Candida albicans = test: Antifungal activity against Candida albicans KCCM 10231 assessed as reduction in […] incubated for 12 hrs by micro-dilution method; assay type: functional
# Salmonella typhimurium = test: Antibacterial activity against Salmonella Typhimurium KCCM 11806 assessed as reduction in bacterial growth incubated for 12 hrs by micro-dilution method; assay type: functional, Salmonella enterica subsp. enterica serovar Typhimurium; details: Salmonella enterica
# Proteus vulgaris = test: Antibacterial activity against Proteus vulgaris KCCM 11906 assessed as reduction in bacterial growth incubated for 12 hrs by broth micro-dilution method; assay type: functional
# [2] = Antibacterial activity against Salmonella choleraesuis KCCM 11806 assessed as reduction in bacterial growth; assay type: functional, Salmonella enterica subsp. enterica serovar Choleraesuis; details: Salmonella enterica
# Staphylococcus aureus [3] = test: Antibacterial activity against Staphylococcus aureus […] assessed as reduction in bacterial growth incubated for 12 hrs by broth micro-dilution method; assay type: functional
# RAW264.7 [4] = test: Antiinflammatory activity against mouse RAW264.7 cells assessed as inhibition of LPS-NO production incubated for 24 hrs by Griess reagent based assay; assay type: functional, cell-based; details: RAW264.7, 24 h
# RAW264.7 [5] = test: Antiinflammatory activity against mouse RAW264.7 cells assessed as inhibition of LPS-NO production by Griess reagent based assay; assay type: functional, cell-based
# WiDr [6] = test: Antiproliferative activity against human WiDr cells assessed as reduction in cell growth incubated for 3 days by MTT assay; assay type: functional, cell-based; details: 72 h
# HEp-2 [7] = test: Antiproliferative activity against human HEp-2 cells assessed as reduction in cell growth incubated for 3 days by MTT assay; assay type: functional, cell-based; details: HEp-2, 72 h
# HEp-2 [8] = test: Antiproliferative activity against human HEp-2 cells assessed as reduction in cell viability incubated for 72 hrs by MTT assay; assay type: functional, cell-based; details: HEp-2, 72 h
# WiDr [9] = test: Antiproliferative activity against human WiDr cells assessed as reduction in cell viability incubated for 72 hrs by MTT assay; assay type: functional, cell-based
# HT-29 = test: Antiproliferative activity against human HT-29 cells assessed as reduction in cell viability incubated for 24 hrs by MTT assay; assay type: functional, cell-based; details: HT-29, 24 h
# BGC-823 = test: Antiproliferative activity against human BGC-823 cells assessed as reduction in cell viability incubated for 24 hrs by MTT assay; assay type: functional, cell-based; details: BGC-823, 24 h
# AGS = test: Antiproliferative activity against human AGS cells assessed as reduction in cell viability incubated for 24 hrs by MTT assay; assay type: functional, cell-based
# SH-SY5Y = test: Antiproliferative activity against human SH-SY5Y cells assessed as reduction in cell viability incubated for 24 hrs by MTT assay; assay type: functional, cell-based
# HepG2 = test: Antiproliferative activity against human HepG2 cells assessed as reduction in cell viability incubated for 24 hrs by MTT assay; assay type: functional, cell-based; details: HepG2, 24 h
# HeLa [10] = test: Antiproliferative activity against human HeLa cells assessed as reduction in cell viability incubated for 24 hrs under light irradiation by MTT assay; assay type: functional, cell-based; details: light or radiation study
# MKN-45 = test: Antiproliferative activity against human MKN-45 cells assessed as reduction in cell viability incubated for 24 hrs by MTT assay; assay type: functional, cell-based; details: MKN-45, 24 h
# HeLa [11] = test: Antiproliferative activity against human HeLa cells assessed as reduction in cell viability incubated for 24 hrs by MTT assay; assay type: functional, cell-based
# PC-3 = test: Antiproliferative activity against human PC-3 cells assessed as reduction in cell viability incubated for 48 hrs by MTT assay; assay type: functional, cell-based; details: PC-3, 48 h
# LNCaP = test: Antiproliferative activity against human LNCaP cells assessed as reduction in cell viability incubated for 48 hrs by MTT assay; assay type: functional, cell-based
# Escherichia coli [12] = test: Antibacterial activity against Escherichia coli KCCM 11234 assessed as reduction in bacterial growth incubated for 12 hrs by broth micro-dilution method; assay type: functional
# Escherichia coli [13] = test: Antibacterial activity against Escherichia coli KCCM 11234 assessed as reduction in bacterial growth incubated; assay type: functional
# Escherichia coli [14] = test: Antibacterial activity against Escherichia coli assessed as reduction in bacterial growth by broth microdilution method; assay type: functional
smiles,measurement,setting,value
N[C@H](Cc1ccc(O)cc1)C(=O)O,MIC,Penicillium citrinum,4 µg/mL
same,MIC,Penicillium digitatum,32 µg/mL
same,MIC,Staphylococcus aureus [1],16 µg/mL
same,MIC,Bacillus subtilis,4 µg/mL
same,MIC,Haemophilus influenzae,16 µg/mL
same,MIC,Pseudomonas aeruginosa,16 µg/mL
same,MIC,Klebsiella aerogenes,16 µg/mL
same,MIC,Enterococcus faecalis,4 µg/mL
same,MIC,Aspergillus niger,4 µg/mL
same,MIC,Shigella sonnei,8 µg/mL
same,MIC,Candida albicans,16 µg/mL
same,MIC,Salmonella typhimurium,4 µg/mL
same,MIC,Proteus vulgaris,16 µg/mL
same,MIC,[2],4 µg/mL
same,MIC,Staphylococcus aureus [3],8 µg/mL
C/C=C/C1=CC2=C/C(=C(/C#N)C(=O)CCCCC)C(C)(O)C(=O)C2=CO1 (centres undefined),IC50,RAW264.7 [4],2.6 µM
C/C=C/C1=CC2=C(CO1)C(=O)[C@](C)(O)[C@@H](CC(=O)CCCCC)C2,IC50,RAW264.7 [5],22.6 µM
same,IC50,WiDr [6],55.3 µM
same,IC50,HEp-2 [7],77.6 µM
C/C=C/c1cc2c(cn1)C(=O)[C@](C)(O)[C@@H](CC(=O)CCCCC)C2,IC50,RAW264.7 [4],57.1 µM
C/C=C/C1=CC2=CC3=C(C(=O)CCCCC)C(=O)O[C@@]3(C)[C@@H](O)C2=CO1,IC50,HEp-2 [8],14.8 µM
same,IC50,WiDr [9],15.7 µM
same,IC50,RAW264.7 [4],3.65 µM
C/C=C/C1=CC2=CC3=C(C(=O)CCCCC)C(=O)OC3(C)C(=O)C2=CN1 (centres undefined),IC50,RAW264.7 [4],12.5 µM
C/C=C/C1=CC2=CC3=C(C(=O)CCCCCCC)C(=O)O[C@@]3(C)[C@@](O)(CC(C)=O)C2=CO1,IC50,HEp-2 [8],8.7 µM
same,IC50,WiDr [9],11 µM
same,IC50,RAW264.7 [4],2.72 µM
C/C=C/C1=CC2=CC3=C(C(=O)CCCCC)C(=O)O[C@@]3(C)[C@@](O)(CC(C)=O)C2=CO1,IC50,HEp-2 [8],10.4 µM
same,IC50,WiDr [9],10.5 µM
same,IC50,RAW264.7 [4],1.7 µM
C/C=C/C1=CC2=CC3=C(C(=O)CCCCC)C(=O)O[C@@]3(C)C(=O)C2=CO1,IC50,HEp-2 [8],107 µM
same,IC50,HT-29,36.7 µM
same,IC50,WiDr [9],109 µM
same,IC50,BGC-823,12.6 µM
same,IC50,AGS,7.98 µM
same,IC50,SH-SY5Y,30.9 µM
same,IC50,HepG2,44.2 µM
same,IC50,HeLa [10],24 µM
same,IC50,RAW264.7 [4],21.2 µM
same,IC50,MKN-45,14.3 µM
same,IC50,HeLa [11],93.7 µM
CCCCCCCCCC(=O)[C@H]1C(=O)O[C@]2(C)C(=O)C=C3C=C(CC(C)OC(C)=O)OC=C3[C@H]12 (some centres undefined),IC50,RAW264.7 [4],16.6 µM
CCCCCC(=O)C[C@@H]1CC(CC(=O)CCC)=C(C)C(=O)[C@]1(C)O,IC50,WiDr [6],142 µM
same,IC50,HEp-2 [7],124 µM
C/C=C/C1=CC2=CC3=C(C(=O)CCCCCCC)C(=O)O[C@@]3(C)[C@@H](O)C2=CO1,IC50,HEp-2 [8],9.8 µM
same,IC50,WiDr [9],8.6 µM
same,IC50,RAW264.7 [4],0.99 µM
C/C=C/c1cc2c(cn1)C(=O)[C@](C)(O)[C@@H](CC(=O)CCCCCCC)C2,IC50,RAW264.7 [4],74.7 µM
C/C=C/C1=CC2=C(CO1)C(=O)[C@]1(C)OC(=O)[C@H](C(O)CCCCC)[C@H]1C2 (some centres undefined),IC50,PC-3,47 µM
same,IC50,LNCaP,45 µM
C/C=C/C1=CC2=C(CO1)C(=O)[C@](C)(O)[C@@H](CC(=O)CCCCCCC)C2,IC50,RAW264.7 [5],19.7 µM
same,IC50,WiDr [6],55.8 µM
same,IC50,HEp-2 [7],21 µM
C/C=C/C1=CC2=CC3=C(C(=O)CCCCC)C(=O)OC3(C)C(=O)C2=CN1CCO (centres undefined),IC50,RAW264.7 [4],27.5 µM
C/C=C/C1=CC2=CC3=C(C(=O)CCCCCCC)C(=O)O[C@@]3(C)C(=O)C2=CO1,IC50,HEp-2 [8],55.9 µM
same,IC50,WiDr [9],54.1 µM
same,IC50,RAW264.7 [4],> 39.2 µM
N[C@@H](CS)C(=O)O [CYSTEINE],MIC,Penicillium citrinum,32 µg/mL
same,MIC,Escherichia coli [12],64 µg/mL
same,MIC,Penicillium digitatum,32 µg/mL
same,MIC,Staphylococcus aureus [1],16 µg/mL
same,MIC,Bacillus subtilis,32 µg/mL
same,MIC,Escherichia coli [13],64 µg/mL
same,MIC,Haemophilus influenzae,8 µg/mL
same,MIC,Pseudomonas aeruginosa,16 µg/mL
same,MIC,Klebsiella aerogenes,8 µg/mL
same,MIC,Enterococcus faecalis,4 µg/mL
same,MIC,Aspergillus niger,8 µg/mL
same,MIC,Shigella sonnei,16 µg/mL
same,MIC,Candida albicans,16 µg/mL
same,MIC,Salmonella typhimurium,8 µg/mL
same,MIC,Proteus vulgaris,8 µg/mL
same,MIC,[2],16 µg/mL
same,MIC,Staphylococcus aureus [3],16 µg/mL
N[C@H](Cc1ccccc1)C(=O)O [D-PHENYLALANINE],MIC,Penicillium citrinum,8 µg/mL
same,MIC,Escherichia coli [12],8 µg/mL
same,MIC,Penicillium digitatum,16 µg/mL
same,MIC,Staphylococcus aureus [1],16 µg/mL
same,MIC,Bacillus subtilis,8 µg/mL
same,MIC,Escherichia coli [13],8 µg/mL
same,MIC,Haemophilus influenzae,16 µg/mL
same,MIC,Pseudomonas aeruginosa,16 µg/mL
same,MIC,Klebsiella aerogenes,16 µg/mL
same,MIC,Enterococcus faecalis,8 µg/mL
same,MIC,Aspergillus niger,8 µg/mL
same,MIC,Shigella sonnei,16 µg/mL
same,MIC,Candida albicans,8 µg/mL
same,MIC,Salmonella typhimurium,8 µg/mL
same,MIC,Proteus vulgaris,16 µg/mL
same,MIC,[2],4 µg/mL
same,MIC,Staphylococcus aureus [3],8 µg/mL
N[C@@H](Cc1ccccc1)C(=O)O [PHENYLALANINE],MIC,Penicillium citrinum,8 µg/mL
same,MIC,Escherichia coli [12],8 µg/mL
same,MIC,Penicillium digitatum,16 µg/mL
same,MIC,Staphylococcus aureus [1],16 µg/mL
same,MIC,Bacillus subtilis,8 µg/mL
same,MIC,Escherichia coli [13],8 µg/mL
same,MIC,Haemophilus influenzae,16 µg/mL
same,MIC,Pseudomonas aeruginosa,8 µg/mL
same,MIC,Klebsiella aerogenes,16 µg/mL
same,MIC,Enterococcus faecalis,4 µg/mL
same,MIC,Aspergillus niger,8 µg/mL
same,MIC,Shigella sonnei,16 µg/mL
same,MIC,Escherichia coli [14],16 µg/mL
same,MIC,Candida albicans,8 µg/mL
same,MIC,Salmonella typhimurium,4 µg/mL
same,MIC,Proteus vulgaris,16 µg/mL
same,MIC,[2],8 µg/mL
same,MIC,Staphylococcus aureus [3],8 µg/mL
N[C@@H](Cc1ccc(O)cc1)C(=O)O [TYROSINE],MIC,Penicillium citrinum,8 µg/mL
same,MIC,Penicillium digitatum,32 µg/mL
same,MIC,Staphylococcus aureus [1],8 µg/mL
same,MIC,Bacillus subtilis,4 µg/mL
same,MIC,Haemophilus influenzae,32 µg/mL
same,MIC,Pseudomonas aeruginosa,8 µg/mL
same,MIC,Klebsiella aerogenes,4 µg/mL
same,MIC,Enterococcus faecalis,8 µg/mL
same,MIC,Aspergillus niger,4 µg/mL
same,MIC,Shigella sonnei,32 µg/mL
same,MIC,Candida albicans,8 µg/mL
same,MIC,Salmonella typhimurium,16 µg/mL
same,MIC,Proteus vulgaris,32 µg/mL
same,MIC,[2],8 µg/mL
same,MIC,Staphylococcus aureus [3],8 µg/mL
